According to US5646246A, “Isolation and structural elucidation of the human cancer cell growth inhibitory cyclic peptides phakellistatin 4, 5, 6, 7, 8 and 9” (Arizona Board of Regents acting on behalf of Arizona State …, priority 1994, dated 1997):
In brackets after ≈: the same amount, converted by molar mass. Where a SMILES comes first, the peptide text is derived from it.

Key:
Assay type in all cases: cell-based
[1] = system: murine lymphocytic leukemia P388; assay: in vitro murine P388 lymphocytic leukemia cell growth inhibition; details: dose reducing percent growth to 50%
Description: The following measures are used to express drug activity by giving the drug dose which reduces cell growth to a specified percentage of growth:
(§1) ED50 (P388) and GI50 (HTCL) are the drug doses needed to reduce the percent growth to 50%. There is no mathematical difference between ED50 and GI50, which are both calculated using the same formula. The only difference is historical usage. TGI, (Total Growth Inhibition), is the drug dose needed to yield zero percent growth, i.e., just as many cells at the end of the experiment as were present in the beginning. Whether just as many cells were killed as were produced (steady state), or no growth occurred (total inhibition), cannot be distinguished.
(§2) Each drug is tested at five (5) doses: 100--10--1--0.1--0.01 μg/ml. Percent Growths are calculated for each dose. The two (or three) doses with growth values above, below, (or near to) 50% growth are used to calculate the ED50 /GI50 using a linear regression formula. The log of the dose is used during the regression computation. If no dose yields a growth value under 50%, the results are expressed as: ED50 >(highest dose). If no dose yields growth higher than 50% growth, then ED50 <(lowest dose). Similar calculations are performed for the TGI at 0% growth, and at -50% growth for the LC50.
(§3) At the start of an experiment, cells from the in vitro cell cultures are inoculated into the appropriate tubes or microtiter plates. One set of control tubes/plates is immediately counted to determine the number of cells at the start of the experiment. This is the "baseline count", or "Tzero reading". At the end of the experiment (48 hours later), a second set of control tubes/plates is analyzed to determine the "Control Growth" value. The growth (or death) of cells relative to the initial quantity of cells is used to define the "Percent of Growth".

[2] = system: NCI human cancer cell line panel; assay: NCI human cancer cell line panel, in vitro primary screen; details: for in vitro growth inhibitory activity against human cancer cell lines: result in words
Description: Current research in the control of cancer in the U.S. is coordinated by the National Cancer Institute (NCI). To determine whether a substance has anti-cancer properties, the NCI has established a systematic protocol. This protocol, which involves the testing of a substance against a standard cell line panel containing 60 human tumor cell lines, has been verified and is accepted in scientific circles. The protocol, and the established statistical means for analyzing the results obtained by the standardized testing are fully described in the literature. See: Boyd, Dr. Michael R., Principles & Practice of Oncology, PPO Updates, Volume 3, Number 10, October 1989, for a general overview of the testing protocol; Monks, Anne et al., "Feasibility of a High-Flux Anticancer Drug Screen Using a Diverse Panel of Cultured Human Tumor Cell Lines", 83 J. Nat. Cancer Inst., No. 11, 757 (1991); and Paull, K. D., "Display and Analysis of Patterns of Differential Activity of Drugs Against Human Tumor Cell Lines; Development of Mean Graph and COMPARE Algorithm", 81 Journal of the National Cancer Institute Reports, No. 14, 1088, (1989), for a description of the methods of statistical analysis. Each of these references are incorporated herein by this reference thereto.
as §1
LC50, (Lethal Concentration 50%), is the drug concentration which reduces growth to -50%, i.e., removes half of the cells originally present at the beginning of the experiment.
as §2, §3

KM20L2 = assay: human cancer cell line growth inhibition, colon KM20L2
Description: as §1
(§4) Each drug is tested at five (5) doses: 100--10--1--0.1--0.01 μg/ml. Percent Growths are calculated for each dose. The two (or three) doses with growth values above, below, (or near to) 50% growth are used to calculate the ED50 /GI50 using a linear regression formula. […]
as §3

SF-295 = assay: human cancer cell line growth inhibition, CNS SF-295
Description: as §1, §4, §3

OVCAR-3 = assay: human cancer cell line growth inhibition, ovarian OVCAR-3
Description: as §1, §4, §3

SK-MEL-5 = assay: human cancer cell line growth inhibition, melanoma SK-MEL-5
Description: as §1, §4, §3

A498 = assay: human cancer cell line growth inhibition, renal A498
Description: as §1, §4, §3

NCI-H460 = assay: human cancer cell line growth inhibition, lung NCI-H460
Description: as §1, §4, §3

| SMILES | ED50 (P388) [1] | GI50 ([2]; NCI human cancer cell line panel, quadruplicate experiments) | in vitro growth inhibitory activity against human cancer cell lines [2] | GI50 colon KM20L2 (KM20L2) | GI50 CNS SF-295 (SF-295) | GI50 ovarian OVCAR-3 (OVCAR-3) | GI50 melanoma SK-MEL-5 (SK-MEL-5) | GI50 renal A498 (A498) | GI50 lung NCI-H460 (NCI-H460) |
| --- | --- | --- | --- | --- | --- | --- | --- | --- | --- |
| CC[C@H](C)[C@@H]1NC(=O)[C@H](C)NC(=O)[C@H](CCSC)NC(=O)[C@H](C)NC(=O)[C@@H](CC(N)=O)NC(=O)[C@H](Cc2ccccc2)NC(=O)[C@@H]2CCCN2C1=O [phakellistatin 5, cyclo-(Pro-Phe-Asn-Ala-Met-Ala-Ile)] | 0.23 µg/mL (≈ 0.309 µM) | ~3000 nM | growth inhibitory activity was also demonstrated | – | – | – | – | – | – |
| CC[C@H](C)[C@@H]1NC(=O)[C@@H]2CCCN2C(=O)[C@H](CC(C)C)NC(=O)C(Cc2c[nH]c3ccccc23)NC(=O)[C@@H]2CCCN2C(=O)[C@H](Cc2ccccc2)NC(=O)[C@@H]2CCCN2C1=O (stereo partly drawn) [phakellistatin 6, cyclo-(Pro-Trp-Leu-Pro-Ile-Pro-Phe)] | 0.18 µg/mL (≈ 0.212 µM) | – | growth inhibitory activity was also demonstrated | 0.021 µg/mL (≈ 0.0247 µM) | 0.041 µg/mL (≈ 0.0482 µM) | 0.025 µg/mL (≈ 0.0294 µM) | 0.032 µg/mL (≈ 0.0376 µM) | 0.078 µg/mL (≈ 0.0917 µM) | 0.019 µg/mL (≈ 0.0223 µM) |
| CC[C@H](C)[C@@H]1NC(=O)[C@@H]2CCCN2C(=O)[C@@H]2CCCN2C(=O)[C@H]([C@@H](C)CC)NC(=O)[C@H](Cc2ccc(O)cc2)NC(=O)[C@@H]2CCCN2C(=O)[C@@H]2CCCN2C(=O)[C@H](CC(C)C)NC(=O)[C@H](C)NC(=O)[C@H](Cc2ccccc2)NC1=O [phakellistatin 7, cyclo-(Pro-Pro-Ile-Phe-Ala-Leu-Pro-Pro-Tyr-Ile)] (cyclo(ALPPYIPPIF)) | 3.0 µg/mL (≈ 2.7 µM) | – | growth inhibitory activity was also demonstrated | – | – | – | – | – | – |
| CC[C@H](C)[C@@H]1NC(=O)[C@@H]2CCCN2C(=O)[C@@H]2CCCN2C(=O)[C@H]([C@@H](C)CC)NC(=O)[C@H](Cc2ccc(O)cc2)NC(=O)[C@@H]2CCCN2C(=O)[C@@H]2CCCN2C(=O)[C@H](CC(C)C)NC(=O)[C@H](C(C)C)NC(=O)[C@H](Cc2ccccc2)NC1=O [phakellistatin 8, cyclo-(Pro-Pro-Ile-Phe-Val-Leu-Pro-Pro-Tyr-Ile)] (cyclo(FVLPPYIPPI)) | 4.1 µg/mL (≈ 3.6 µM) | – | growth inhibitory activity was also demonstrated | – | – | – | – | – | – |
| CC[C@H](C)[C@@H]1NC(=O)[C@@H]2CCCN2C(=O)[C@@H]2CCCN2C(=O)[C@H](C(C)C)NC(=O)[C@H](Cc2ccc(O)cc2)NC(=O)[C@@H]2CCCN2C(=O)[C@@H]2CCCN2C(=O)[C@H](CC(C)C)NC(=O)[C@H](C(C)C)NC(=O)[C@H](Cc2ccccc2)NC1=O [phakellistatin 9, cyclo-(Pro-Pro-Ile-Phe-Val-Leu-Pro-Pro-Tyr-Val)] (cyclo(FVLPPYVPPI)) | 1.7 µg/mL (≈ 1.51 µM) | – | growth inhibitory activity was also demonstrated | – | – | – | – | – | – |
